Results: ChEMBL document CHEMBL1135808, “A new type of mixed anhydride and its applications to the synthesis of 7-substituted 8-chloro-5,5-dioxoimidazo[1,2-b][1,4,2]benzodithiazines with in vitro antitumor activity” (2002)

system: NCI-H46; test: Log of molar concentration leading to 50% cell death against non-small-cell lung cancer […] cell line was reported; format: functional; conditions: Homo sapiens, read-out: Log LC50 (the source's name) (converted)

Q: `O=C(Nc1cccc2nsnc12)c1cc2c(cc1Cl)Sc1nccn1S2(=O)=O` was tested. Which CC50 did it give?
A: The CC50 was 8.91 µM.

system: EKVX; test: In vitro growth inhibition against non-small-cell lung cancer EKVX cell line was reported.; format: functional; conditions: Homo sapiens

Q: Which GI50 does the source give for `O=C(Nc1cccc2nsnc12)c1cc2c(cc1Cl)Sc1nccn1S2(=O)=O` here?
A: The GI50 was 2.29 µM.

system: RPMI-8226; test: Log of molar concentration leading to 50% cell death against leukemia […] cell line was reported; format: functional; conditions: Homo sapiens, read-out: Log LC50 (the source's name) (converted)

Q: `O=C(Nc1cccc2nsnc12)c1cc2c(cc1Cl)Sc1nccn1S2(=O)=O` was tested. Which CC50 did it give?
A: The CC50 was 7.94 µM.

system: HCC 2998; test: In vitro growth inhibition against colon cancer HCC2998 cell line was reported.; format: functional; conditions: Homo sapiens

Q: For `O=C(Nc1cccc2nsnc12)c1cc2c(cc1Cl)Sc1nccn1S2(=O)=O`, which GI50 is on record?
A: Its GI50 is 3.39 µM.

system: HL-60; test: Log of molar concentration leading to 50% cell death against leukemia HL-60(TB) cell line was reported; format: functional; conditions: Homo sapiens, read-out: Log LC50 (the source's name) (converted)

Q: For `O=C(Nc1cccc2nsnc12)c1cc2c(cc1Cl)Sc1nccn1S2(=O)=O`, which CC50 is on record?
A: Its CC50 is 7.41 µM.

system: SK-MEL-28; test: Log of molar concentration leading to 50% cell death against melanoma SK-MEL-28 cell line was reported; format: functional; conditions: Homo sapiens, read-out: Log LC50 (the source's name) (converted)

Q: `O=C(Nc1cccc2nsnc12)c1cc2c(cc1Cl)Sc1nccn1S2(=O)=O` was tested. Which CC50 did it give?
A: The CC50 was 46.8 µM.

system: SK-MEL-5; test: Log of molar concentration leading to 50% cell death against melanoma SK-MEL-5 cell line was reported; format: functional; conditions: Homo sapiens, read-out: Log LC50 (the source's name) (converted)

Q: With `O=C(Nc1cccc2nsnc12)c1cc2c(cc1Cl)Sc1nccn1S2(=O)=O` as the compound, how does the CC50 read?
A: Its CC50 is 72.4 µM.

system: MCF7; test: Log of molar concentration leading to 50% cell death against breast cancer MCF 7 cell line was reported; format: functional; conditions: Homo sapiens, read-out: Log LC50 (the source's name) (converted)

Q: Which CC50 does the source give for `O=C(Nc1cccc2nsnc12)c1cc2c(cc1Cl)Sc1nccn1S2(=O)=O` here?
A: The CC50 was 6.61 µM.

system: CCRF-CEM; test: In vitro growth inhibition against leukemia CCRF-CEM cell line was reported.; format: functional; conditions: Homo sapiens

Q: Which GI50 does the source give for `O=C(Nc1cccc2nsnc12)c1cc2c(cc1Cl)Sc1nccn1S2(=O)=O` here?
A: The GI50 was 3.24 µM.

system: IGROV-1; test: Log of molar concentration leading to 50% cell death against ovarian cancer IGROV1 cell line was reported; format: functional; conditions: Homo sapiens, read-out: Log LC50 (the source's name) (converted)

Q: How did the CC50 turn out when `O=C(Nc1cccc2nsnc12)c1cc2c(cc1Cl)Sc1nccn1S2(=O)=O` was run?
A: The CC50 was 79.4 µM.

system: COLO 205; test: In vitro growth inhibition against colon cancer COLO 205 cell line was reported.; format: functional; conditions: Homo sapiens

Q: Which GI50 does the source give for `O=C(Nc1cccc2nsnc12)c1cc2c(cc1Cl)Sc1nccn1S2(=O)=O` here?
A: The GI50 was 17.4 µM.

system: M14; test: In vitro total growth inhibition against melanoma M14 cell lines was reported.; format: functional; conditions: Homo sapiens, read-out: Log TGI (converted)

Q: For `O=C(Nc1cccc2nsnc12)c1cc2c(cc1Cl)Sc1nccn1S2(=O)=O`, which TGI is on record?
A: Its TGI is 46.8 µM.

system: CAKI-1; test: In vitro total growth inhibition against renal cancer CAKI-1cell lines was reported.; format: functional; conditions: Homo sapiens, read-out: Log TGI (converted)

Q: For `O=C(Nc1cccc2nsnc12)c1cc2c(cc1Cl)Sc1nccn1S2(=O)=O`, which TGI is on record?
A: The TGI was 19.1 µM.

system: SF-295; test: Log of molar concentration leading to 50% cell death against CNS cancer SF-295 cell line was reported; format: functional; conditions: Homo sapiens, read-out: Log LC50 (the source's name) (converted)

Q: Which CC50 does the source give for `O=C(Nc1cccc2nsnc12)c1cc2c(cc1Cl)Sc1nccn1S2(=O)=O` here?
A: The CC50 was 55 µM.

system: MDA-MB-231; test: In vitro total growth inhibition against breast cancer MDA-MB-231/ATCC cell lines was reported.; format: functional; conditions: Homo sapiens, read-out: Log TGI (converted)

Q: Which TGI does the source give for `O=C(Nc1cccc2nsnc12)c1cc2c(cc1Cl)Sc1nccn1S2(=O)=O` here?
A: The TGI was 24.5 µM.

system: SN12C; test: In vitro growth inhibition against renal cancer SN12C cell line was reported.; format: functional; conditions: Homo sapiens

Q: `O=C(Nc1cccc2nsnc12)c1cc2c(cc1Cl)Sc1nccn1S2(=O)=O` was tested. Which GI50 did it give?
A: The GI50 was 15.1 µM.

system: DU-145; test: In vitro growth inhibition against prostate cancer […] cell line was reported.; format: functional; conditions: Homo sapiens

Q: With `O=C(Nc1cccc2nsnc12)c1cc2c(cc1Cl)Sc1nccn1S2(=O)=O` as the compound, how does the GI50 read?
A: Its GI50 is 1.74 µM.

system: OVCAR-3; test: Log of molar concentration leading to 50% cell death against ovarian cancer OVCAR-3 cell line was reported; format: functional; conditions: Homo sapiens, read-out: Log LC50 (the source's name) (converted)

Q: How did the CC50 turn out when `O=C(Nc1cccc2nsnc12)c1cc2c(cc1Cl)Sc1nccn1S2(=O)=O` was run?
A: Its CC50 is 6.61 µM.

system: UACC-62; test: Log of molar concentration leading to 50% cell death against melanoma UACC-62 cell line was reported; format: functional; conditions: Homo sapiens, read-out: Log LC50 (the source's name) (converted)

Q: For `O=C(Nc1cccc2nsnc12)c1cc2c(cc1Cl)Sc1nccn1S2(=O)=O`, which CC50 is on record?
A: Its CC50 is 41.7 µM.

system: SK-OV-3; test: In vitro growth inhibition against ovarian cancer SK-OV-3 cell line was reported.; format: functional; conditions: Homo sapiens

Q: Which GI50 does the source give for `O=C(Nc1cccc2nsnc12)c1cc2c(cc1Cl)Sc1nccn1S2(=O)=O` here?
A: The GI50 was 45.7 µM.

system: UO-31; test: In vitro total growth inhibition against renal cancer UO-31 cell lines was reported.; format: functional; conditions: Homo sapiens, read-out: Log TGI (converted)

Q: Which TGI does the source give for `O=C(Nc1cccc2nsnc12)c1cc2c(cc1Cl)Sc1nccn1S2(=O)=O` here?
A: Its TGI is 4.37 µM.

system: BT-549; test: In vitro growth inhibition against breast cancer BT 549 cell line was reported.; format: functional; conditions: Homo sapiens

Q: With `O=C(Nc1cccc2nsnc12)c1cc2c(cc1Cl)Sc1nccn1S2(=O)=O` as the compound, how does the GI50 read?
A: The GI50 was 12.3 µM.

system: COLO 205; test: Log of molar concentration leading to 50% cell death against colon cancer COLO 205 cell line was reported; format: functional; conditions: Homo sapiens, read-out: Log LC50 (the source's name) (converted)

Q: For `O=C(Nc1cccc2nsnc12)c1cc2c(cc1Cl)Sc1nccn1S2(=O)=O`, which CC50 is on record?
A: The CC50 was 56.2 µM.

system: SF-539; test: In vitro growth inhibition against CNS cancer SF-539 cell line was reported.; format: functional; conditions: Homo sapiens

Q: `O=C(Nc1cccc2nsnc12)c1cc2c(cc1Cl)Sc1nccn1S2(=O)=O` was tested. Which GI50 did it give?
A: The GI50 was 2.24 µM.

system: HCC 2998; test: Log of molar concentration leading to 50% cell death against colon cancer HCC2998 cell line was reported; format: functional; conditions: Homo sapiens, read-out: Log LC50 (the source's name) (converted)

Q: With `O=C(Nc1cccc2nsnc12)c1cc2c(cc1Cl)Sc1nccn1S2(=O)=O` as the compound, how does the CC50 read?
A: The CC50 was 55 µM.

system: CAKI-1; test: In vitro growth inhibition against renal cancer CAKI-1 cell line was reported.; format: functional; conditions: Homo sapiens

Q: For `O=C(Nc1cccc2nsnc12)c1cc2c(cc1Cl)Sc1nccn1S2(=O)=O`, which GI50 is on record?
A: Its GI50 is 4.79 µM.

system: MDA-N; test: In vitro total growth inhibition against breast cancer MDA-N cell lines was reported.; format: functional; conditions: Homo sapiens, read-out: Log TGI (converted)

Q: How did the TGI turn out when `O=C(Nc1cccc2nsnc12)c1cc2c(cc1Cl)Sc1nccn1S2(=O)=O` was run?
A: The TGI was 27.5 µM.

system: SK-MEL-28; test: In vitro growth inhibition against melanoma SK-MEL-28 cell line was reported.; format: functional; conditions: Homo sapiens

Q: `O=C(Nc1cccc2nsnc12)c1cc2c(cc1Cl)Sc1nccn1S2(=O)=O` was tested. Which GI50 did it give?
A: Its GI50 is 2.45 µM.

system: SK-MEL-5; test: In vitro growth inhibition against melanoma SK-MEL-5 cell line was reported.; format: functional; conditions: Homo sapiens

Q: With `O=C(Nc1cccc2nsnc12)c1cc2c(cc1Cl)Sc1nccn1S2(=O)=O` as the compound, how does the GI50 read?
A: The GI50 was 15.8 µM.

system: SK-MEL-5; test: In vitro total growth inhibition against melanoma SK-MEL-5 cell lines was reported.; format: functional; conditions: Homo sapiens, read-out: Log TGI (converted)

Q: For `O=C(Nc1cccc2nsnc12)c1cc2c(cc1Cl)Sc1nccn1S2(=O)=O`, which TGI is on record?
A: The TGI was 33.9 µM.
